Test results reported in PMC9061857, “A fluorogenic probe for granzyme B enables in-biopsy evaluation and screening of response to anticancer immunotherapies” (Nature Communications, 2022).
Where no end group is shown, it is not given here.

Key:
[1] = system: EpCAM+ epithelial cells from lung cancer patients; assay: Flow cytometry of paired tumor and non-tumor lung tissue; type: cell-based, human; settings: H5 5 μM, 30 min r.t.
Experimental: Tissue samples of tumor and paired non-tumor (n = 5 for both conditions) lungs were taken from treatment-naïve patients undergoing surgical resection. Participants provided written informed consent and the study was approved by NHS Lothian REC and facilitated by NHS Lothian SAHSC Bioresource (REC No: 15/ES/0094). Fresh samples were minced, incubated with 1 mg mL^−1 collagenase IV, 1 mg mL^−1 DNase 1, 50 U mL^−1 hyaluronidase in DMEM for 1 h at 37 °C with agitation, and passed through 100 and 70 µm filters followed by red cell lysis. […] Cells were washed twice in PBS 2% fetal calf serum (FCS) prior to collection. For microscopy, formalin-fixed paraffin-embedded slides of non-small cell lung cancer and paired non-cancerous lung were deparaffinized, rehydrated, stained with hematoxylin and eosin, followed by dehydration and imaging on a Zeiss AxioScan microscope.
Supplementary Figure 17. Gating strategy for assessing the probe H5 in human lung tissue. All cells were gated to exclude debris and gated on singlets. Leukocytes were excluded on the basis of CD45 positivity, and live EpCAM positive cells were selected by excluding cells stained positive with the Zombie UV viability dye (1:1000 dilution). Probe H5 positivity in the live EpCAM+ population in non-tumor and tumor tissues was assessed against cells stained in the absence of prob e H5 giving a background of <1% positivity.
(§1) (1 picture or pasted object on this page, not shown here)

human GzmB (hGzmB) = target: T1, human GzmB (hGzmB) (Homo sapiens, UniProt P10144); assay: HPLC conversion of fluorogenic peptides by hGzmB; type: biochemical
T1 construct: For active GzmB vs pro-GzmB, p < 0.0001
Experimental: (§2) Supplementary Figure 1. Reactivity of fluorogenic substrates against human GzmB and limits of detection. a) Reaction conversion rates (by HPLC-UV detection at 350 nm) for Ac-IEPD-AMC (50 μM) in TRIS buffer (see Methods) at 37 °C containing different concentrations of hGzmB. Data presented as mean values±SEM (n=3 independent biological experiments). b) Reaction conversion rates (by HPLC-UV detection at 500 nm) for the tetrapeptide T1 (25 μM) in TRIS buffer at 37 °C containing different concentrations of hGzmB. Data presented as mean values±SEM (3 independent biological experiments).
(§3) Source data provided as a Source Data file.
as §1
Supplementary Table 1. Chemical structures and reactivity of FRET-based tetrapeptides against human GzmB.
Code Structure Linker Quencher HPLC conversion HPLC conversion […]
Supplementary Table 2. Sequences and reactivity of FRET-based hexapeptides against […]
Code Peptide sequence HPLC conversion
H1 Ile-Glu-Pro-Asp-Ala-Gly 75%
H2 Ile-Glu-Pro-Asp-Ser-Gly 80%
H3 Ile-Glu-Pro-Asp-Ser-Leu 80%
H4 Ile-Glu-Pro-Asp-Trp-Leu 82%
H6 Ile-Glu-Pro-Asp-Trp-Arg 40%
H7 Ile-Glu-Pro-Asp-Arg-Leu 60%
H5m Ile-Glu-Phe-Asp-Ala-Leu 70%

hGzmB = assay: Limit of detection of hGzmB by probe fluorescence; type: biochemical, human; settings: H5 25 μM, 37 °C, emission 530 nm, no washing steps (Fig. S4)
Experimental: as §2, §3, §1
Supplementary Figure 4. Comparative enzyme selectivity and limit of detection for […]
Ac-IEPD-AMC (all at 25 μM) after incubation for 90 min at 37 °C with hGzmB (light gray bars), human caspase-3 (dark gray bars) and hGzmA (white bars) (all enzymes used at 20 nM). Data presented as mean values±SEM (n=3). Excitation wavelengths: 450 nm (for […]
450 nm (for Ac-IEPD-AMC). b) Limit of detection of hGzmB by fluorescence emission […]
presented as mean values±SD (2 independent experiments with 3 technical replicates).

recombinant human GzmB = target: T2, recombinant human GzmB (Homo sapiens, UniProt P10144); assay: Kinetic measurements (Michaelis-Menten) with recombinant hGzmB; type: biochemical; set-up: cleavage rate of H5 by hGzmB: unit not given here
T2 construct: For active GzmB vs pro-GzmB, p < 0.0001
Experimental: Fluorescence-based assays with different enzymes were performed in the appropriate buffers. […] In experiments with Ac-IEPD-CHO (50 μM), the inhibitor was preincubated for 1 h with GzmB before the addition of any probe.
Supplementary Table 4. Kinetic values determined for hexapeptides H2-H5 against
Probe Sequence kcat kcat / KM

[2] = hGzmB 20 nM, 37 °C, Michaelis-Menten, n = 3

T2 sequence (P10144 21-247): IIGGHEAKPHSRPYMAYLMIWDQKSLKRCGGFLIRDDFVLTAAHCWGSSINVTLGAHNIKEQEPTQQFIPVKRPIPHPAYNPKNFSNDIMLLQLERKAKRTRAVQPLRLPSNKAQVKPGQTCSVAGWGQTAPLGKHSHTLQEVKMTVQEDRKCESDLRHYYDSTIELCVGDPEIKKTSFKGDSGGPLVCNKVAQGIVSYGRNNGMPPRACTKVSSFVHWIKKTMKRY
T1 sequence (P10144 21-247): as above

Substance: IEPDAL [H5, FRET hexapeptide IEPDAL with BODIPY-FL fluorophore at the N-terminal end and Dabcyl quencher]
- percentage of EpCAM+ H5+ epithelial cells ([1]; Healthy (non-tumor) tissue, Data 1): 10.4%
- percentage of EpCAM+ H5+ epithelial cells ([1]; Healthy (non-tumor) tissue, Data 2): 9.7%
- percentage of EpCAM+ H5+ epithelial cells ([1]; Healthy (non-tumor) tissue, Data 3): 11.0%
- percentage of EpCAM+ H5+ epithelial cells ([1]; Healthy (non-tumor) tissue, Data 4): 6.6%
- percentage of EpCAM+ H5+ epithelial cells ([1]; Healthy (non-tumor) tissue, Data 5): 10.4%
- percentage of EpCAM+ H5+ epithelial cells ([1]; Tumor tissue, Data 1): 19.4%
- percentage of EpCAM+ H5+ epithelial cells ([1]; Tumor tissue, Data 2): 19.1%
- percentage of EpCAM+ H5+ epithelial cells ([1]; Tumor tissue, Data 3): 21.3%
- percentage of EpCAM+ H5+ epithelial cells ([1]; Tumor tissue, Data 4): 18.6%
- percentage of EpCAM+ H5+ epithelial cells ([1]; Tumor tissue, Data 5): 36.0%
- time to complete cleavage (human GzmB (hGzmB); 20 nM hGzmB): less than 30 min
- HPLC conversion (20 nM hGzmB, 2 h) (human GzmB (hGzmB); probe 25 μM (Ac-IEPD-AMC 50 μM), TRIS buffer, 37 °C, HPLC-UV): 100%
- LoD (hGzmB): 6 pM
- kcat (recombinant human GzmB; Supplementary Table 4, recombinant human GzmB): 117 s⁻¹
- Km (recombinant human GzmB; [2]): 9.6 µM
- kcat (recombinant human GzmB; [2]): 117 s⁻¹
- cleavage rate of H5 by hGzmB (recombinant human GzmB; hGzmB 20 nM, [H5] 1 uM, Data 1): 8.4
- cleavage rate of H5 by hGzmB (recombinant human GzmB; hGzmB 20 nM, [H5] 1 uM, Data 2): 5.5
- cleavage rate of H5 by hGzmB (recombinant human GzmB; hGzmB 20 nM, [H5] 1 uM, Data 3): 6.0
- cleavage rate of H5 by hGzmB (recombinant human GzmB; hGzmB 20 nM, [H5] 5 uM, Data 1): 48.9
- cleavage rate of H5 by hGzmB (recombinant human GzmB; hGzmB 20 nM, [H5] 5 uM, Data 2): 44.9
- cleavage rate of H5 by hGzmB (recombinant human GzmB; hGzmB 20 nM, [H5] 5 uM, Data 3): 43.3
- cleavage rate of H5 by hGzmB (recombinant human GzmB; hGzmB 20 nM, [H5] 7.5 uM, Data 1): 58.5
- cleavage rate of H5 by hGzmB (recombinant human GzmB; hGzmB 20 nM, [H5] 7.5 uM, Data 2): 69.9
- cleavage rate of H5 by hGzmB (recombinant human GzmB; hGzmB 20 nM, [H5] 7.5 uM, Data 3): 72.5
- cleavage rate of H5 by hGzmB (recombinant human GzmB; hGzmB 20 nM, [H5] 10 uM, Data 1): 75.6
- cleavage rate of H5 by hGzmB (recombinant human GzmB; hGzmB 20 nM, [H5] 10 uM, Data 2): 81.3
- cleavage rate of H5 by hGzmB (recombinant human GzmB; hGzmB 20 nM, [H5] 10 uM, Data 3): 63.2
- cleavage rate of H5 by hGzmB (recombinant human GzmB; hGzmB 20 nM, [H5] 12.5 uM, Data 1): 89.7
- cleavage rate of H5 by hGzmB (recombinant human GzmB; hGzmB 20 nM, [H5] 12.5 uM, Data 2): 89.4
- cleavage rate of H5 by hGzmB (recombinant human GzmB; hGzmB 20 nM, [H5] 12.5 uM, Data 3): 82.2
- cleavage rate of H5 by hGzmB (recombinant human GzmB; hGzmB 20 nM, [H5] 15 uM, Data 1): 88.0
- cleavage rate of H5 by hGzmB (recombinant human GzmB; hGzmB 20 nM, [H5] 15 uM, Data 2): 88.2
- cleavage rate of H5 by hGzmB (recombinant human GzmB; hGzmB 20 nM, [H5] 15 uM, Data 3): 73.1
- cleavage rate of H5 by hGzmB (recombinant human GzmB; hGzmB 20 nM, [H5] 17.5 uM, Data 1): 82.4
- cleavage rate of H5 by hGzmB (recombinant human GzmB; hGzmB 20 nM, [H5] 17.5 uM, Data 2): 92.3
- cleavage rate of H5 by hGzmB (recombinant human GzmB; hGzmB 20 nM, [H5] 17.5 uM, Data 3): 81.2
- cleavage rate of H5 by hGzmB (recombinant human GzmB; hGzmB 20 nM, [H5] 20 uM, Data 1): 100.4
- cleavage rate of H5 by hGzmB (recombinant human GzmB; hGzmB 20 nM, [H5] 20 uM, Data 2): 99.8
- cleavage rate of H5 by hGzmB (recombinant human GzmB; hGzmB 20 nM, [H5] 20 uM, Data 3): 89.3
